# Bridges are numbered along the chain shown (N, C = ends). Where no end group is shown, it is not given here.
# Test system: ApoL1
# Assay: Spot phage ELISA, ApoL1
# Assay type: binding, human
# Conditions: ratio of signal for target protein over BSA background
row,Substance,S/N
1,GCAFQFYLCKQDSDCLAGCVCGGTQSCG (also: bicyclic or more (positions not given here)) [ApoL1 EET I-II 38],11.5
2,GCAFRRHVCKQDSDCLAGCVCDKSDGCG (also: bicyclic or more (positions not given here)) [ApoL1 EET I-II 25],25.7
3,GCGFWKWMHGCKQDSDCLAGCVCGPNGFCG (also: bicyclic or more (positions not given here)) [ApoL1 EET I-II 46],3.9
4,GCHFKVWWCKQDSDCLAGCVCDPAVICG (also: bicyclic or more (positions not given here)) [ApoL1 EET I-II 44],6.1
5,GCHYRRNRWEQACKQDSDCLAGCVCQGMPKCG (also: bicyclic or more (positions not given here)) [ApoL1 EET I-II 18],38.3
6,GCKFAKARCKQDSDCLAGCVCSPVRKCG (also: bicyclic or more (positions not given here)) [ApoL1 EET I-II 10],42.7
7,GCKFHLWFCKQDSDCLAGCVCDPNGFCS (also: bicyclic or more (positions not given here)) [ApoL1 EET I-II 33],15.3
8,GCKFKAHSCKQDSDCLAGCVCSGQDPGCG (also: bicyclic or more (positions not given here)) [ApoL1 EET I-II 30],18.9
9,GCKFKCKQDSDCLAGCVCGHYDHCG (also: bicyclic or more (positions not given here)) [ApoL1 EET I-II 28],23.6
10,GCKFKEWFCKQDSDCLAGCVCEHSQSCG (also: bicyclic or more (positions not given here)) [ApoL1 EET I-II 20],36.0
11,GCKFKHFLCKQDSDCLAGCVCDDLQNCG (also: bicyclic or more (positions not given here)) [ApoL1 EET I-II 9],43.0
12,GCKFKHWYCKQDSDCLAGCVCCPPNHYG [ApoL1 EET I-II 11],41.1
13,GCKFKRHMCKQDSDCLAGCVCTVKQNCG (also: bicyclic or more (positions not given here)) [ApoL1 EET I-II 41],8.3
14,GCKFKRWTCKQDSDCLAGCVCEQPGMCG (also: bicyclic or more (positions not given here)) [ApoL1 EET I-II 19],37.0
15,GCKFKSFTCKQDSDCLAGCVCWDQDTCG (also: bicyclic or more (positions not given here)) [ApoL1 EET I-II 7],44.3
16,GCKFKWHFCKQDSDCLAGCVCQPHETCG (also: bicyclic or more (positions not given here)) [ApoL1 EET I-II 36],12.4

# Test system: PCSK9
# Assay: not given
# Assay type: binding, human
# Conditions: ratio of signal for target protein over BSA background
row,Substance,s/n ratio
1,"GPTQSKYGMCGGIGYSGPTVCASGTTCQVLDPYTSQCLPGAS (disulfide 10-27, 21-37 (inferred)) [PCSK9FL_CBD2]",26.8
2,GPTQSNYGMCGGIGYSGPTVCASGTTCQVLYPTTSRCLPGAS (also: bicyclic or more (positions not given here)) [PCSK9FL_CBD1],17.7

# Same assay, conditions: spot phage ELISA signal-to-noise on PCSK9
row,Substance,S/N
1,GCGYWFYEWFCKQDSDCLAGCVCDPNGFCG (disulfide (positions not given here)) [PCSK9 EET I-II 20],9.0
2,GCGYWWKHWFCKQDSDCLAGCVCGPNGFCG (disulfide (positions not given here)) [PCSK9 EET I-II 10],12.1
3,GCGYWWKQWFCKQDSDCLAGCVCGPNGFCG (disulfide (positions not given here)) [PCSK9 EET I-II 17],17.6
4,GCGYWWRQWFCKQGSDCLAGCVCGPNGFCG (disulfide (positions not given here)) [PCSK9 EET I-II 7],20.9
5,GCGYWWSTWFCKQDSDCLAGCVCGPNGFCG (disulfide (positions not given here)) [PCSK9 EET I-II 4],15.0
6,GCGYWWVQWFCKQDSDCLAGCVCGPNGFCD (disulfide (positions not given here)) [PCSK9 EET I-II 11],19.1
7,GCGYWWVQWFCKQDSDCLAGCVCGPNGFCD (disulfide (positions not given here)) [PCSK9 EET I-II 18],20.1
8,GCGYWYRIWFCKQDSDCLAGCVCGPNGFCG (disulfide (positions not given here)) [PCSK9 EET I-II 9],9.4
9,GCGYWYRVWFCKQDSDCLAGCVCQEPGPCG (disulfide (positions not given here)) [PCSK9 EET I-II 3],6.4
10,GCHEGYWWRQWFCKQDSDCLAGCVCGPNGFCG (disulfide (positions not given here)) [PCSK9 EET I-II 19],20.5
11,GCNLGYWWKQWFCKQDSDCLAGCVCERPRDCG (disulfide (positions not given here)) [PCSK9 EET I-II 2],6.1
12,GCQQGYWWWYWFCKQDSDCLAGCVCGPNGFCG (disulfide (positions not given here)) [PCSK9 EET I-II 13],26.0
13,GCSWVPYWCKQDSDCLAGCVCWEMVWCD (disulfide (positions not given here)) [PCSK9 EET I-II 6],7.0
14,GCWWWGRIHCKQDSDCLAGWGQHCG (disulfide (positions not given here)) [PCSK9 EET I-II 15],44.9
15,GCYHGYWYITWFCKQDSDCLAGCVCSQDEQCG (disulfide (positions not given here)) [PCSK9 EET I-II 14],17.0
16,GPAHSLFGMCGGIDYSGPTVCASGTTCHVLNPTTSHCLPRAS (disulfide (positions not given here)) [PCSK9 CBD 8],5.0
17,GPTHSTYGQCGGIGYSGQSVCASGTTCQVLWAALSWCLPGAS (disulfide (positions not given here)) [PCSK9 CBD 12],7.8
18,GPTQSAFGPCGGIGYSGPTVCASGTTCQVLSPDVSQCLPGAS (disulfide (positions not given here)) [PCSK9 CBD 5],2.6
19,GPTQSAYGQCGGIGYSGPTVCASGTTCQVLWPQVSWCLPGAS (disulfide (positions not given here)) [PCSK9 CBD 23],13.9
20,GPTQSDYGMCGGIGYSGPTVCASGTTCQVLDPYTSQCLPGAS (disulfide (positions not given here)) [PCSK9 CBD 28],14.2
21,GPTQSEYGMCGGIGYSGPTVCASGTTCQVLDPMTSQCLPGAS (disulfide (positions not given here)) [PCSK9 CBD 3],2.6

row,Substance,S/N
1,GPTQSEYGMCGGIGYSGPTVCASGTTCQVLDPTTSQCLPGAS (disulfide (positions not given here)) [PCSK9 CBD 10],7.2
2,GPTQSEYGMCGGIGYSGPTVCASGTTCQVLDPTTSQCLPGAS (disulfide (positions not given here)) [PCSK9 CBD 17],11.3
3,GPTQSHYGLCGGIGYSGPTVCASGTTCQVLSPEFSQCLPGAS (disulfide (positions not given here)) [PCSK9 CBD 13],8.0
4,GPTQSKYGMCGGIGYSGPTVCASGTTCQVLDPYTSQCLPGAS (disulfide (positions not given here)) [PCSK9 CBD 14],8.8
5,GPTQSLFGMCGGIGYSGPTVCASGTTCQVLYPTTSRCLPGAS (disulfide (positions not given here)) [PCSK9 CBD 20],18.0
6,GPTQSMCGMCGGIGYSGPTVCASGTTCQVLDPHTSQCLPGAS (disulfide (positions not given here)) [PCSK9 CBD 18],14.0
7,GPTQSMYGMCGGIGYSGPTVCASGTTCQVLDPNTSQCLPGAS (disulfide (positions not given here)) [PCSK9 CBD 11],6.9
8,GPTQSNYGMCGGIGYSGPTVCASGTTCQVLYPTTSRCLPGAS (disulfide (positions not given here)) [PCSK9 CBD 1],17.7
9,GPTQSNYGMCGGIGYSGPTVCASGTTCQVLqPSTSRCLPGAS (disulfide) [PCSK9 CBD 16],11.6
10,GPTQSNYGQCGGIGYSGPTVCASGTTCQVLWPAMSWCLPGAS (disulfide (positions not given here)) [PCSK9 CBD 15],14.0
11,GPTQSNYGQCGGIGYSGPTVCASGTTCQVLqPAMSWCLPGAS (disulfide) [PCSK9 CBD 21],18.7
12,GPTQSPGGICGGIGYSGPTVCASGTTCQVLSPEYSQCLPGAS (disulfide (positions not given here)) [PCSK9 CBD 19],15.8
13,GPTQSQFGMCGGIGYSGPTVCASGTTCQVLDPTTSQCLPGAS (disulfide (positions not given here)) [PCSK9 CBD 2],2.5
14,GPTQSTCGQCGGIGYSGPTVCASGTTCQVLWPTLSWCLPGAS (disulfide (positions not given here)) [PCSK9 CBD 27],20.8
15,GPTQSTYGQCGGIGYSGPTVCASGTTCQVLGPALSWCLPGAS (disulfide (positions not given here)) [PCSK9 CBD 9],5.2
16,GPTQSTYGQCGGIGYSGPTVCASGTTCQVLWPALSWCLPGAS (disulfide (positions not given here)) [PCSK9 CBD 22],15.0
17,GPTQSTYGQCGGIGYSGPTVCASGTTCQVLWPALSWCLPGAS (disulfide (positions not given here)) [PCSK9 CBD 26],21.5
18,GPTQSTYGRCGGIGYSGPTVCASGTTCQVLWPALSWCLPGAS (disulfide (positions not given here)) [PCSK9 CBD 4],3.7
19,GPTQSVHGMCGGIGYSGPTVCASGTTCQVLDPFTSQCLPGAS (disulfide (positions not given here)) [PCSK9 CBD 24],14.8
20,GPTQSVYGMCGGIGYSGPTVCASGTTCQVLDPTTSQCLPGAS (disulfide (positions not given here)) [PCSK9 CBD 25],14.9
21,GPTQSYGQCGGIGYSGPTVCASGTTCQVLWPQVSWCLPGAST (disulfide (positions not given here)) [PCSK9 CBD 6],2.9
